Experimental data: PubChem BioAssay (NCI)
“And” between values parts separate entries of the source, which are not always exact repeats. Equal entries are not always repeated.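 48-hour exposure; five concentrations; linearly interpolated endpoints. GI50 marks 50% less growth. TGI: total growth inhibition.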

Columns and labels:
Assay in all cases: inhibition of tumour cell growth, NCI panel, 48 h
OVCAR-3 ovarian = system: OVCAR-3 ovarian
CCRF-CEM leukemia = system: CCRF-CEM leukemia
NCI-H23 lung = system: NCI-H23 lung
MOLT-4 leukemia = system: MOLT-4 leukemia
SNB-19 CNS = system: SNB-19 CNS
NCI-H460 lung = system: NCI-H460 lung
OVCAR-5 ovarian = system: OVCAR-5 ovarian
NCI-H522 lung = system: NCI-H522 lung
NCI-H226 lung = system: NCI-H226 lung
HCC-2998 colon = system: HCC-2998 colon

| Compound | TGI (OVCAR-3 ovarian) | TGI (CCRF-CEM leukemia) | TGI (NCI-H23 lung) | TGI (MOLT-4 leukemia) | TGI (SNB-19 CNS) | TGI (NCI-H460 lung) | TGI (OVCAR-5 ovarian) | TGI (NCI-H522 lung) | TGI (NCI-H226 lung) | TGI (HCC-2998 colon) | GI50 (OVCAR-3 ovarian) | GI50 (CCRF-CEM leukemia) | GI50 (NCI-H23 lung) | GI50 (MOLT-4 leukemia) | GI50 (SNB-19 CNS) | GI50 (NCI-H460 lung) | GI50 (OVCAR-5 ovarian) | GI50 (NCI-H522 lung) | GI50 (NCI-H226 lung) | GI50 (HCC-2998 colon) |
| --- | --- | --- | --- | --- | --- | --- | --- | --- | --- | --- | --- | --- | --- | --- | --- | --- | --- | --- | --- | --- |
| COc1cccc(C2CC(C)(N3CCCC3)Oc3cc4c(cc32)OCO4)c1O (centres undefined) | 46.1 µM | > 83.3 µM | 71 µM | > 73.4 µM | > 100 µM | > 82.1 µM | > 100 µM | 47.2 µM | 55.9 µM | 48.2 µM |  |  |  |  |  |  |  |  |  |  |
| COc1cc2c(cc1OC)C(=O)/C(=C/c1cccc(OCC(=O)c3ccccc3)c1)C2 | > 100 µM | 7.31 µM | > 100 µM | 14 µM | > 100 µM | 91.9 µM | > 100 µM | 50.5 µM | > 100 µM | > 100 µM | 17.1 µM | 2.17 µM | 22.3 µM | 2.58 µM | 25.7 µM | 13.3 µM | 73.9 µM | 4.6 µM | 20.2 µM | 73.1 µM |
| CCN(CC)CCOc1nc2ccc(OC)cc2c2c1-c1ccc(OC)cc1C2=O | 2.15 µM | 3.26 µM | 3.23 µM | 1.85 µM | 3.19 µM | 1.43 µM | 7.2 µM | 1.81 µM | 3.06 µM | 6.68 µM | 0.872 µM | 0.299 µM | 1.25 µM | 0.283 µM | 0.922 µM | 0.371 µM | 1.87 µM | 0.394 µM | 0.87 µM | 1.31 µM |
| COc1cc(/C(C#N)=C/c2ccc3c(c2OC)OCO3)cc2c1OCO2 | 0.0774 µM | 4.62 µM | 11.6 µM | 19.9 µM | 20.4 µM | 14.2 µM | > 80.2 µM | 0.283 µM | 36.4 µM | 10.8 µM | 0.0272 µM | 0.0601 µM | 0.162 µM | 0.111 µM | 0.236 µM | 0.0452 µM | 0.823 µM | 0.0324 µM | 0.603 µM | 0.182 µM |
| O=C(O)CSc1n[nH]c(-c2ccc(O)cc2)n1 | > 100 µM | > 100 µM | > 100 µM | > 100 µM | > 100 µM | > 100 µM | > 100 µM | > 100 µM | > 100 µM | > 100 µM |  |  |  |  |  |  |  |  |  |  |
| O=C1CC(O)C=C1Nc1ccc(Cl)cc1 (centres undefined) | > 100 µM | > 100 µM | > 100 µM | > 100 µM | > 100 µM | > 100 µM | > 100 µM | 48.4 µM | > 100 µM | 44.5 µM |  |  |  |  |  |  |  |  |  |  |
| N#CCC(=O)Nc1cccc(C(F)(F)F)c1 | > 100 µM | > 100 µM | > 100 µM | > 100 µM | > 100 µM | > 100 µM | > 100 µM | > 100 µM | > 100 µM | > 100 µM |  |  |  |  |  |  |  |  |  |  |
| COc1ccc2c(c1)/C(=C\c1c(C)nc3sc(C)cn13)C(=O)N2C | 3.99 µM | > 100 µM | 35.3 µM | > 100 µM | > 100 µM | 36.6 µM | > 100 µM | 8.44 µM | 15.9 µM | 4.68 µM | 1.43 µM | 5.46 µM | 8.04 µM | 3.76 µM | 4.08 µM | 3.54 µM | 19.9 µM | 2.54 µM | 2.74 µM | 1.37 µM |
| CN1CC[C@@H](c2c(O)cc(O)c3c(=O)cc(-c4ccccc4Cl)oc23)[C@@H](O)C1 | > 19.4 µM |  | 0.23 µM and 0.301 µM and 0.189 µM | 0.662 µM and 0.521 µM | > 37.3 µM |  |  | 0.222 µM and 0.319 µM | 0.301 µM and 0.821 µM | 0.312 µM and 0.162 µM | 0.0636 µM and 0.0375 µM and 0.0256 µM | 0.038 µM and 0.0412 µM | 0.0908 µM and 0.103 µM and 0.0453 µM | 0.0429 µM and 0.0288 µM | 0.103 µM | 0.0681 µM and 0.0693 µM | 0.0801 µM and 0.146 µM |  | 0.0522 µM | 0.137 µM and 0.0417 µM |
| O=C(CN1CCN(c2ncccn2)CC1)Nc1ccc(Cl)cc1C(=O)c1ccccc1Cl | > 100 µM | > 100 µM | > 100 µM | > 100 µM | > 100 µM | > 100 µM | > 100 µM | > 100 µM | > 100 µM | > 100 µM | > 100 µM | 83.5 µM | > 100 µM | 21.9 µM | > 100 µM | > 100 µM | > 100 µM | 46.6 µM | > 100 µM | > 100 µM |
| CC(=O)O/C=C(/C=C/OC(C)=O)C(C/C=C(\C)C#CC=C(C)C)OC(C)=O (centres undefined) | 68.6 µM | > 100 µM | > 100 µM | > 100 µM | > 100 µM | > 100 µM | > 100 µM | 73.7 µM | > 100 µM | > 100 µM |  |  |  |  |  |  |  |  |  |  |
| COc1ccc2c(c1)[nH]c(=O)c1c3cc(C)c(C)cc3cn21 | < 0.0143 µM |  | 0.392 µM | 0.281 µM | 4.66 µM | 1.02 µM | 2.92 µM | < 0.0275 µM | 21.7 µM | 0.0802 µM | < 0.01 µM | < 0.0149 µM | 0.0305 µM | < 0.0176 µM | < 0.0226 µM | < 0.018 µM | 0.0561 µM | < 0.0115 µM | 0.389 µM | 0.0235 µM |
| C=C1C(=O)O[C@H]2[C@H]1CC/C(COC(=O)c1cc3cc(F)ccc3[nH]1)=C\CC[C@@]1(C)O[C@@H]21 | 2.66 µM | 6.52 µM | 4.26 µM | 9.23 µM | 21 µM | 11.5 µM | 4.09 µM | 3.38 µM | 3.52 µM | 3.74 µM | 1.2 µM | 0.919 µM | 1.9 µM | 2.26 µM | 5.04 µM | 3.04 µM | 1.77 µM | 1.66 µM | 1.76 µM | 2.02 µM |
| COc1cc(C2C=C(c3cccc(NC(C)=O)c3)Nc3ncnn32)cc(OC)c1OC (centres undefined) | 0.645 µM | 4.16 µM | > 100 µM | > 100 µM | > 100 µM | > 100 µM | > 100 µM | > 100 µM | > 100 µM | 0.489 µM | 0.236 µM | 0.72 µM | 0.468 µM | 1.65 µM | 1.21 µM | 2.14 µM |  | 1.49 µM | 0.667 µM | 0.0566 µM |
